From PMC4207410, “Clicked Cinnamic/Caffeic Esters and Amides as Radical Scavengers and 5-Lipoxygenase Inhibitors” (International Journal of Medicinal Chemistry, 2014)

Tests used:
[1] = Antiradical activity assay (DPPH radical scavenging); details: DPPH in ethanol, 30 min in the dark at room temperature, absorbance 520 nm; mean [SD] of 2 experiments
Experimental: The radical scavenging activity of test compounds was measured as previously described using 2,2-diphenyl-1-picrylhydrazyl (DPPH) as a stable radical with slight modifications. Particular care was taken in the preparation of the control (DPPH reagent + ethanol as a diluent without test compounds). Controls with O.D. of 0.350-0.360 at 520 nm were deemed as acceptable to avoid variations in IC50 calculations. 1 mL of DPPH in ethanol ([…]) was mixed with 1 mL of the test compounds at the indicated concentrations or their diluent (ethanol). Each mixture was then shaken vigorously and held in the dark for 30 min at room temperature. The absorbance of DPPH at 520 nm was then measured. The radical scavenging activity was expressed in terms of % inhibition of DPPH absorbance: (1) % Inhibition=[(Acontrol−Atest)/(Acontrol)] ×100, where A control is the absorbance of the control (DPPH solution without test compound) and A test is the absorbance of the test sample (DPPH solution plus compound). Data are expressed as means ± SD of 2 independent experiments, each performed in triplicate (Table 1). IC50 values were calculated from a sigmoidal concentration-response curve fitting model with a variable slope on GraphPad Prism 5 software (GraphPad software, San Diego, California).
Radical scavenging activities of analogous cinnamoyl esters 8a–h, cinnamoyl amides 9a–h, caffeoyl esters 15a–h, and caffeoyl amides 16a–h were assayed using 2,2-diphenyl-1-picrylhydrazyl (DPPH) as a stable radical and are expressed as IC50 concentrations in Table 1.

5-LO [2] = target: T1, 5-LO (Homo sapiens, UniProt P09917); test: 5-LO products biosynthesis assay in thapsigargin-stimulated human PMNL; assay type: cell-based; set-up: 5-LO is highly expressed in PMNL; endogenous in cells; host or cells: human PMNL from peripheral blood; details: for potency relative to Zileuton (1) in human PMNL: comparison of IC50 values, thapsigargin-stimulated human PMNL; for IC50: read-out: Human PMNL IC50 (μM) [SD]
T1 sequence (P09917 1-674): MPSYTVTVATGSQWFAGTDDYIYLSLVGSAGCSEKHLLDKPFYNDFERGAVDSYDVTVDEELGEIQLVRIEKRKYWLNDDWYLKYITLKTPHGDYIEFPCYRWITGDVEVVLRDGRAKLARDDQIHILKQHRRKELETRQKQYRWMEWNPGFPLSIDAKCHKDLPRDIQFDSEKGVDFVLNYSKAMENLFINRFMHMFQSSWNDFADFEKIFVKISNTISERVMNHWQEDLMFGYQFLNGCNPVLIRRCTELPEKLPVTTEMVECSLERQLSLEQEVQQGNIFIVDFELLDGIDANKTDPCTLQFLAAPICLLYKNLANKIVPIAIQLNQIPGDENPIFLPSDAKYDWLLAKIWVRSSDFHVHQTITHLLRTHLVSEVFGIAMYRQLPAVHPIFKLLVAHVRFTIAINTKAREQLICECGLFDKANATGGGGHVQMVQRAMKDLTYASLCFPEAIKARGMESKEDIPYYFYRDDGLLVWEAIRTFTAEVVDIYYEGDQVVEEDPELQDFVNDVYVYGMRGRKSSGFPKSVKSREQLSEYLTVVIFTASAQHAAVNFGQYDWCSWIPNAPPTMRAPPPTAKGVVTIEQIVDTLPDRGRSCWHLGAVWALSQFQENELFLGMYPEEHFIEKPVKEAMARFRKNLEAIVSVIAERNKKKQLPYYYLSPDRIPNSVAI
Experimental: Human PMNL were prepared from peripheral blood as described and were suspended in HBSS containing 1.6 mM CaCl2 (10^7 cells/mL) and preincubated with compounds for 5 min at 37°C in the presence of 1 U/mL of adenosine deaminase (Sigma-Aldrich, Oakville, ON, Canada). Cells were then stimulated for 15 min at 37°C with 1 μM thapsigargin (Sigma-Aldrich). Reactions were stopped by the addition of 0.5 volume of cold MeOH : CH3CN (1 : 1) and 50 ng of PGB2 as internal standard and samples were stored at −20°C until processing on octadecyl (C18) columns and RP-HPLC analysis as indicated above. Data are expressed as means ± SEM of 3 independent experiments, each performed in duplicate (Figures 4 and 5).
5-LO is highly expressed in PMNL and these cells are important producers of LTB4 [28, 32].

5-LO [3] = target: T1, 5-LO; test: 5-LO products biosynthesis assay in whole HEK293 cells stably transfected with 5-LO and FLAP; assay type: cell-based; set-up: expressed in transfected cells; details: for potency relative to Zileuton (1) in HEK293 cells: comparison of IC50 values
Description: HEK293 cells were cotransfected with a pcDNA3.1 vector expressing 5-LO and a pBUDCE4.1 vector expressing 5-LO activating protein (FLAP) using Polyfect reagent (QIAGEN, Mississauga, ON, Canada) according to the manufacturer's protocol. Stable transfections of HEK293 cells were obtained following cell culture in the presence of Geneticin and Zeocin (Invitrogen, Burlington, ON, Canada). The resulting stable double transfectants were propagated in culture and aliquots were frozen. Once thawed for a series of experiments, each aliquot of cells is cultured for a maximum of 6 weeks before being discarded.
For cell stimulation of 5-LO products, transfected HEK293 cells were collected following trypsinization, washed and the cell pellet was resuspended in Hank's balanced salt solution (HBSS) (Lonza, Walkersville, MD) containing 1.6 mM CaCl2 at a concentration of 5 × 10^5 cells mL^−1. Cells were preincubated with each compound at the indicated concentration for 5 min at 37°C. Cells were then stimulated for 15 minutes at 37°C with the addition of 10 μM calcium ionophore A23187 (Sigma-Aldrich, Oakville, ON, Canada) and 10 μM arachidonic acid (Cayman Chemical, Ann Arbor, MI). Stimulations were stopped and processed on RP-HPLC as described previously. Data are expressed as means ± SEM of 3 independent experiments, each performed in duplicate (Figures 2 and 3).

O=C(C=Cc1ccccc1)OCCn1ccnn1 [8a, 2-(1H-1,2,3-Triazol-1-yl)ethyl Cinnamate]
melting point: 99 to 100 °C

CCCc1cn(CCOC(=O)C=Cc2ccccc2)nn1 [8b, 2-(4-Propyl-1H-1,2,3-triazol-1-yl)ethyl Cinnamate]
melting point: 63 to 64 °C

O=C(C=Cc1ccccc1)OCCn1cc(C2CCCCC2)nn1 [8c]
melting point: 119 °C

O=C(C=Cc1ccccc1)OCCn1cc(C2=CCCCC2)nn1 [8d]
melting point: 101 to 103 °C

O=C(C=Cc1ccccc1)OCCn1cc(-c2ccccc2)nn1 [8e]
melting point: 122 to 123 °C

Cc1ccc(-c2cn(CCOC(=O)C=Cc3ccccc3)nn2)cc1 [8f]
melting point: 139 to 140 °C

O=C(C=Cc1ccccc1)OCCn1cc(-c2ccc(F)cc2)nn1 [8g]
melting point: 134 to 135 °C

O=Cc1ccc(-c2cn(CCOC(=O)C=Cc3ccccc3)nn2)cc1 [8h]
melting point: 127 to 128 °C

O=C(C=Cc1ccccc1)NCCn1ccnn1 [9a]
melting point: 140 to 141 °C

O=C(C=Cc1ccccc1)NCCn1cc(C2CCCCC2)nn1 [9c]
melting point: 159 to 161 °C

O=C(C=Cc1ccccc1)NCCn1cc(C2=CCCCC2)nn1 [9d]
melting point: 170 to 171 °C

O=C(C=Cc1ccccc1)NCCn1cc(-c2ccccc2)nn1 [9e]
melting point: 171 to 173 °C

Cc1ccc(-c2cn(CCNC(=O)C=Cc3ccccc3)nn2)cc1 [9f]
melting point: 208 °C

O=C(C=Cc1ccccc1)NCCn1cc(-c2ccc(F)cc2)nn1 [9g]
melting point: 193 to 196 °C

O=Cc1ccc(-c2cn(CCNC(=O)C=Cc3ccccc3)nn2)cc1 [9h]
melting point: 200 to 201 °C

O=C(/C=C/c1ccc(O)c(O)c1)OCCn1ccnn1 [15a, (E)-2-(1H-1,2,3-Triazol-1-yl)ethyl 3-(3,4-Dihydroxyphenyl)acrylate]
IC50 [1]: 9.55 µM | melting point: 196 to 198 °C (dec.) | 5-LO inhibition in stimulated human PMNL (in words) (5-LO [2]; stimulated human PMNL, 1 μM): complete loss of inhibition

CCCc1cn(CCOC(=O)/C=C/c2ccc(O)c(O)c2)nn1 [15b]
IC50 [1]: 9.37 µM | melting point: 180 to 181 °C (dec.)

O=C(/C=C/c1ccc(O)c(O)c1)OCCn1cc(C2CCCCC2)nn1 [15c]
IC50 [1]: 9.3 µM | melting point: 191 °C (dec.)

O=C(/C=C/c1ccc(O)c(O)c1)OCCn1cc(C2=CCCCC2)nn1 [15d]
IC50 [1]: 8.7 µM | melting point: 219 to 220 °C (dec.) | 5-LO inhibition in stimulated human PMNL (in words) (5-LO [2]; stimulated human PMNL, 1 μM): roughly equipotent with Zileuton

O=C(/C=C/c1ccc(O)c(O)c1)OCCn1cc(-c2ccccc2)nn1 [15e]
IC50 [1]: 15.1 µM | melting point: 193 to 195 °C (dec.)

Cc1ccc(-c2cn(CCOC(=O)/C=C/c3ccc(O)c(O)c3)nn2)cc1 [15f]
IC50 [1]: 9.01 µM | melting point: 181 to 182 °C (dec.) | potency relative to Zileuton (1) in HEK293 cells (5-LO [3]): four times more potent than Zileuton | potency relative to Zileuton (1) in human PMNL (5-LO [2]): equivalent to Zileuton | IC50 (5-LO [2]): 3.1 µM | 5-LO inhibition in stimulated human PMNL (in words) (5-LO [2]; stimulated human PMNL, 1 μM): roughly equipotent with Zileuton

O=C(/C=C/c1ccc(O)c(O)c1)OCCn1cc(-c2ccc(F)cc2)nn1 [15g]
IC50 [1]: 9.4 µM | melting point: 238 to 240 °C (dec.) | potency relative to Zileuton (1) in HEK293 cells (5-LO [3]): four times more potent than Zileuton | potency relative to Zileuton (1) in human PMNL (5-LO [2]): equivalent to Zileuton | IC50 (5-LO [2]): 3.3 µM

O=Cc1ccc(-c2cn(CCOC(=O)/C=C/c3ccc(O)c(O)c3)nn2)cc1 [15h]
IC50 [1]: 8.85 µM | melting point: 220 to 230 °C (dec.) | 5-LO inhibition in stimulated human PMNL (in words) (5-LO [2]; stimulated human PMNL, 1 μM): roughly equipotent with Zileuton

O=C(/C=C/c1ccc(O)c(O)c1)NCCn1ccnn1 [16a]
IC50 [1]: 15.4 µM | melting point: 163 to 165 °C

CCCc1cn(CCNC(=O)/C=C/c2ccc(O)c(O)c2)nn1 [16b]
IC50 [1]: 12.1 µM | melting point: 163 to 165 °C

O=C(/C=C/c1ccc(O)c(O)c1)NCCn1cc(C2CCCCC2)nn1 [16c]
IC50 [1]: 9.87 µM | melting point: 183 to 184 °C

O=C(/C=C/c1ccc(O)c(O)c1)NCCn1cc(C2=CCCCC2)nn1 [16d]
IC50 [1]: 11.2 µM | melting point: 168 to 169 °C

O=C(/C=C/c1ccc(O)c(O)c1)NCCn1cc(-c2ccccc2)nn1 [16e]
IC50 [1]: 10.5 µM | melting point: 208 °C (dec.)

Cc1ccc(-c2cn(CCNC(=O)/C=C/c3ccc(O)c(O)c3)nn2)cc1 [16f]
IC50 [1]: 13 µM | melting point: 220 °C (dec.) | potency relative to Zileuton (1) in HEK293 cells (5-LO [3]): equipotent to Zileuton | 5-LO inhibition in whole HEK293 cells (in words) (5-LO [3]; whole HEK293 cells, 1 μM): no significant 5-LO inhibitory activity | potency relative to Zileuton (1) in human PMNL (5-LO [2]): less active than Zileuton | IC50 (5-LO [2]): 8.2 µM

O=C(/C=C/c1ccc(O)c(O)c1)NCCn1cc(-c2ccc(F)cc2)nn1 [16g]
IC50 [1]: 12 µM | melting point: 226 °C (dec.) | potency relative to Zileuton (1) in HEK293 cells (5-LO [3]): equipotent to Zileuton | 5-LO inhibition in whole HEK293 cells (in words) (5-LO [3]; whole HEK293 cells, 1 μM): no significant 5-LO inhibitory activity | potency relative to Zileuton (1) in human PMNL (5-LO [2]): less active than Zileuton | IC50 (5-LO [2]): 8.8 µM

O=Cc1ccc(-c2cn(CCNC(=O)/C=C/c3ccc(O)c(O)c3)nn2)cc1 [16h]
IC50 [1]: 18.1 µM | melting point: 228 to 230 °C (dec.)

O=C1O[C@H]([C@@H](O)CO)C(O)=C1O [Ascorbic acid, reference compound]
IC50 [1]: 75.4 µM

O=C(/C=C/c1ccc(O)c(O)c1)OCCc1ccccc1 [CAPE 2, caffeic acid phenethyl ester, reference compound]
IC50 [1]: 16.5 µM | 5-LO products synthesis, % of the control value (5-LO [3]; whole HEK293 cells, 1 μM): roughly 50% | inhibition at 1 µM (5-LO [3]; whole HEK293 cells, 1 μM, read-out: inhibition of LTs biosynthesis): ~50% | inhibition at 1 µM (5-LO [2]; read-out: inhibition of 5-LO, stimulated human PMNL, 1 μM): ~75%

CC(c1cc2ccccc2s1)N(O)C(N)=O (stereo not drawn) [Zileuton 1, Zileuton, reference compound]
IC50 [1]: > 100 µM | 5-LO inhibition in whole HEK293 cells (in words) (5-LO [3]; whole HEK293 cells, 1 μM): little to no activity | inhibition at 10 µM (5-LO [3]; whole HEK293 cells, 10 μM (not shown)): ~25%

O=C(/C=C/c1ccc(O)c(O)c1)OCCn1cc(COC(=O)/C=C/c2ccccc2)nn1 [compound 3, reference compound]
IC50 [1]: 12 µM | 5-LO inhibition in stimulated human PMNL (in words) (5-LO [2]; stimulated human PMNL, 1 μM): roughly equipotent with Zileuton
